Data on three compounds can be found in patent US6479553B1, “Use of certain affinity NMDA antagonists as antidepressants” (AstraZeneca AB, priority 1999, dated 2002).

“Also recorded” adds a separate entry of the source. Marks after values point to notes of the source that are not given here.

What all share (format): in vivo
Series [1] deals with rat. As to the kind of experiment: Test for possible sedative activity (motor activity) in the rat. The following applies: 200 mg/kg, up to fifty times the oral effective dose in the MES test. How it is done: (S)-1-Phenyl-2-(2-pyridyl)ethanamine was further tested for possible sedative activity in the rat. At doses up to fifty times the oral effective dose in the maximum electroshock seizure test (MES), (S)-1-phenyl-2-(2-pyridyl)ethanamine induced no changes in four parameters of motor activity, namely, distance travelled, ambulatory time, stereotyped time and resting time. The dose administered was 200 mg/kg.

The test system of series [2] is male NMRI mice. As to the kind of experiment: Small tube test in mice. The following applies: for Average Immobility Time: small tube test, 60 minutes pre-test, last four minutes of test; for Effect on immobility in the small tube test, in words: summary of Table 2, check for non-specific stimulant activity.
The test system of series [3] is male NMRI mice. As to the kind of experiment: Forced swim test in mice. The following applies: for Average Immobility Time: forced swim test, 60 minutes pre-test, last four minutes of test.

As to `Cl.Cl.N[C@@H](Cc1ccccn1)c1ccccc1` [(S)-1-phenyl-2-(2-pyridyl)ethanamine dihydrochloride], the “Changes in four parameters of motor activity (distance travelled, ambulatory time, stereotyped time and resting time)” value in series [1] is on record as “no changes”. For the same compound, the “Average Immobility Time” value was 192 s in series [2] (dose 1 mg/kg i.p.); 210* seconds in series [2] (dose 3 mg/kg i.p.); 201 s in series [2] (dose 10 mg/kg i.p.); 158 s in series [3] (dose 1 mg/kg i.p.); 120* seconds in series [3] (dose 3 mg/kg i.p.); 145* seconds in series [3] (dose 10 mg/kg i.p.). Further, in series [2], the “Effect on immobility in the small tube test, in words” value (shortened to “Effect on immobility”) is reported as “little effect”. Besides, the “Effect in the forced swim test (reduction in immobility time), in words” value in series [3] (summary of Table 1, dihydrochloride) is given as “positive effects; also recorded: have activity in the mouse forced swim test”.
For the compound `CN(C)CCCN1c2ccccc2CCc2ccccc21` [Imipramine, imipramine], the results for the “Average Immobility Time” value in series [2] (dose 10 mg/kg i.p.) and in series [3] (dose 10 mg/kg i.p.) were 202 s and 143* seconds, respectively. In series [2], the “Effect on immobility” value is “little effect”. In addition, the “Effect in the forced swim test (reduction in immobility time), in words” value in series [3] (summary of Table 1) is reported as “very similar result to that observed with (S)-1-phenyl-2-(2-pyridyl)ethanamine”.
Turning to (+)-MK 801, the “Average Immobility Time” value is 190 s in series [2] (dose 0.01 mg/kg i.p.); 173 s in series [2] (dose 0.03 mg/kg i.p.); 128* seconds in series [2] (dose 0.1 mg/kg i.p.); 84* seconds in series [2] (dose 0.3 mg/kg i.p.); 155 s in series [3] (dose 0.01 mg/kg i.p.); 164 s in series [3] (dose 0.03 mg/kg i.p.). For the same compound, the “Average Immobility Time” value is 80* seconds in series [3] (dose 0.1 mg/kg i.p.) and 10* seconds in series [3] (dose 0.3 mg/kg i.p.). For the same compound, the “Effect on immobility” value in series [2] is given as “reduced immobility”. Also, the “Effect in the forced swim test (reduction in immobility time), in words” value in series [3] (summary of Table 1) is reported as “positive effects”.
